This note sets out measurements from ChEMBL document CHEMBL1201862, “PubChem BioAssay data set” (2004).

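Exposure lasted 48 hours, with cells grown in 96-well plates and compounds tested at five concentrations. GI50: concentration for 50% inhibition of growth.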 Active and inactive are the calls of the source. No stated cut-off is given here; in the data, active = GI50 up to about 1.1 µM and inactive = higher. Bounds are passed on as bounds.

Some test systems named below: CCRF-CEM; OVCAR-5; NCI-H522; MCF7; SN12C; RPMI-8226; Hs-578T; NCI-H460; SW-620; SR; HOP-62; TK-10; HL-60; LOX IMVI; SF-268; NCI-H226; HOP-92; EKVX; MDA-N; HCC 2998.
What all share (test): NCI anticancer screen, dose series, 48 h

As for `COc1cc2c(c(O)c1OC)C(=O)C(Cc1ccc(O)cc1)CO2` (stereo not given), the GI50 was 24.5 µM (inactive) in the assay on CCRF-CEM; 48.3 µM (inactive) in the assay on OVCAR-5; 3.27 µM (inactive) with NCI-H522; 2.33 µM (inactive) in the assay on MCF7; 36.3 µM (inactive) with SN12C; 16.6 µM (inactive) in the assay on RPMI-8226. Besides, the GI50 is 14.4 µM (inactive) in the assay with Hs-578T; 32.7 µM (inactive) in the assay with NCI-H460; 30.1 µM (inactive) in the assay with SW-620; 4.67 µM (inactive) in the assay with SR; 27.2 µM (inactive) in the assay on HOP-62; > 100 µM (inactive) in the assay with TK-10. For the same molecule, the GI50 in the assay on HL-60 was 29.2 µM (inactive); in the assay with LOX IMVI, 34.1 µM (inactive); in the assay on SF-268, 32.4 µM (inactive); with NCI-H226 it was 37.9 µM (inactive); in the assay on HOP-92 it was 30.3 µM (inactive).

In the case of `O=C1N/C(=N/N=C/C(O)C(O)C(O)C(O)CO)N/C1=C\c1ccco1` (stereo not given), the GI50 in the assay with EKVX is > 100 µM (inactive); in the assay with CCRF-CEM it was 48.4 µM (inactive); with OVCAR-5, > 100 µM (inactive); in the assay with NCI-H522, 81.7 µM (inactive); in the assay with MCF7 it was > 100 µM (inactive); in the assay on SN12C, > 100 µM (inactive). For the same molecule, the GI50 with RPMI-8226, in the assay on Hs-578T, in the assay with NCI-H460, with SW-620, in the assay on MDA-N and in the assay with HOP-62 was > 100 µM (inactive) throughout. The GI50 in the assay with TK-10, with HL-60, in the assay with LOX IMVI, in the assay on SF-268, in the assay on NCI-H226 and in the assay with HOP-92 was > 100 µM (inactive) each time.

As for `CC(CC=O)Nc1nn2c(=O)c3ccccc3nc2s1` (stereo not given), the GI50 in the assay with EKVX, in the assay with CCRF-CEM, in the assay on OVCAR-5, in the assay with NCI-H522, with MCF7 and in the assay on HCC 2998 was > 100 µM (inactive) throughout. In addition, the GI50 with SN12C, in the assay with RPMI-8226, in the assay on Hs-578T, in the assay with NCI-H460, in the assay on SW-620 and in the assay on SR was > 100 µM (inactive) throughout. The GI50 with HOP-62, in the assay with TK-10, in the assay with LOX IMVI, with SF-268, in the assay on NCI-H226 and with HOP-92 was > 100 µM (inactive) in each case.

For the molecule `Cc1ccnc2nc(-c3ccc4ccccc4c3)cc(O)c12`, the GI50 was 4.36 µM (inactive) in the assay with EKVX; 1.04 µM (active) in the assay on CCRF-CEM; 6.3 µM (inactive) with OVCAR-5; 0.601 µM (active) with NCI-H522; 0.258 µM (active) with MCF7; 1.65 µM (inactive) in the assay on HCC 2998. Moreover, the GI50 in the assay on SN12C was 4.01 µM (inactive); in the assay with RPMI-8226, 0.641 µM (active); in the assay with Hs-578T it was 1.44 µM (inactive); in the assay with SW-620, 0.451 µM (active); in the assay with SR, 0.296 µM (active); in the assay on HOP-62, 2.08 µM (inactive). Further, the GI50 in the assay with TK-10 was 1.75 µM (inactive); in the assay with LOX IMVI it was 0.818 µM (active); in the assay with SF-268 it was 3.1 µM (inactive); in the assay on NCI-H226, 2.13 µM (inactive); in the assay with HOP-92, 0.592 µM (active).

For `[O-][n+]1c2ccccc2[n+]([O-])c2cc(Br)ccc21`, the GI50 in the assay on EKVX is 16.7 µM (inactive); in the assay with CCRF-CEM, 0.0507 µM (active); in the assay with OVCAR-5, 27.8 µM (inactive); with NCI-H522, 12.9 µM (inactive); in the assay with MCF7, 11.3 µM (inactive); in the assay with HCC 2998 it was 16.5 µM (inactive). In addition, the GI50 with SN12C is 21.5 µM (inactive); in the assay with RPMI-8226, 8.05 µM (inactive); in the assay on Hs-578T, 35.2 µM (inactive); with NCI-H460, 10.4 µM (inactive); in the assay on SW-620 it was 20.6 µM (inactive); in the assay on SR it was 2.02 µM (inactive). Besides, the GI50 in the assay on HOP-62 was 45 µM (inactive); in the assay with TK-10 it was 26.1 µM (inactive); in the assay on HL-60 it was 1.31 µM (inactive); with LOX IMVI it was 2.99 µM (inactive); with SF-268, 13.7 µM (inactive); in the assay with NCI-H226 it was 21.6 µM (inactive).

Turning to `O=C1C=CC(=O)c2c1ccc1c3ccccc3n(CCCCCCCCn3c4ccccc4c4ccc5c(c43)C(=O)C=CC5=O)c21`, the GI50 in the assay on EKVX, with CCRF-CEM, in the assay on OVCAR-5, in the assay with NCI-H522, in the assay on MCF7 and with HCC 2998 was > 100 µM (inactive) each time. Moreover, the GI50 is > 100 µM (inactive) in the assay on SN12C; > 100 µM (inactive) in the assay with RPMI-8226; 30.8 µM (inactive) in the assay on Hs-578T; > 100 µM (inactive) in the assay with NCI-H460; > 100 µM (inactive) in the assay on SW-620; > 100 µM (inactive) in the assay on MDA-N. In addition, the GI50 with HOP-62, in the assay on TK-10, in the assay with HL-60, in the assay on LOX IMVI, in the assay on SF-268 and with NCI-H226 was > 100 µM (inactive) throughout.

As to `OCC1OC(n2cnc3c(Cl)nc(Nc4ccc(Cl)c(Cl)c4)nc32)CC1O` (stereo not given), the GI50 in the assay with EKVX was 9.98 µM (inactive); in the assay on CCRF-CEM it was 8.65 µM (inactive); in the assay with OVCAR-5, 13.8 µM (inactive); with NCI-H522, 9.29 µM (inactive); in the assay with MCF7, 11 µM (inactive); in the assay on HCC 2998, 7.8 µM (inactive). Also, the GI50 is 10.5 µM (inactive) in the assay on SN12C; 8.13 µM (inactive) in the assay with RPMI-8226; 13.2 µM (inactive) in the assay on Hs-578T; 7.91 µM (inactive) in the assay with NCI-H460; 11.9 µM (inactive) with SW-620; 10.5 µM (inactive) in the assay with HOP-62. In addition, the GI50 with TK-10 was 8.36 µM (inactive); in the assay with HL-60, 7.05 µM (inactive); in the assay with LOX IMVI, 7.78 µM (inactive); with SF-268 it was 12.7 µM (inactive); in the assay with NCI-H226 it was 8.15 µM (inactive); with HOP-92, 8.18 µM (inactive).

`COc1ccc(-c2csc(Cc3nc4ccccc4c(=O)n3-c3ccc(Cl)cc3)n2)cc1`: the GI50 in the assay with EKVX was 18.2 µM (inactive); with CCRF-CEM it was 28.9 µM (inactive); in the assay on OVCAR-5 it was 23.9 µM (inactive); with NCI-H522, 45.7 µM (inactive); in the assay with MCF7, 32.8 µM (inactive); in the assay on HCC 2998 it was 29.9 µM (inactive). Besides, the GI50 is 15.9 µM (inactive) in the assay on RPMI-8226; > 100 µM (inactive) in the assay with Hs-578T; 33.5 µM (inactive) with NCI-H460; 58.3 µM (inactive) in the assay with SW-620; 22.7 µM (inactive) in the assay on MDA-N; > 100 µM (inactive) in the assay on HOP-62. For the same molecule, the GI50 is > 100 µM (inactive) in the assay with TK-10; 32.6 µM (inactive) with HL-60; 39.4 µM (inactive) in the assay with LOX IMVI; 27.5 µM (inactive) with SF-268; 74.6 µM (inactive) in the assay with NCI-H226.

As for `Cc1ccc(S(=O)(=O)NC(=O)NC(Cc2c[nH]c3ccccc23)C(=O)O)cc1` (stereo not given), the GI50 with CCRF-CEM, in the assay with OVCAR-5, in the assay on NCI-H522, with SN12C, with RPMI-8226 and with Hs-578T was > 100 µM (inactive) each time. The GI50 in the assay on NCI-H460, in the assay with SW-620, with MDA-N, in the assay on SR, with HOP-62 and in the assay with TK-10 was > 100 µM (inactive) throughout. The GI50 with HL-60, in the assay with LOX IMVI, in the assay on SF-268 and in the assay on HOP-92 was > 100 µM (inactive) in each case.

In the case of `CC1=NNC(=O)C1C1CC(c2c[nH]c3ccccc23)=NN(c2ccccc2)C1=O` (stereo not given), the GI50 was > 100 µM (inactive) in the assay with EKVX; 28.1 µM (inactive) in the assay with CCRF-CEM; > 100 µM (inactive) in the assay on OVCAR-5; 19.8 µM (inactive) with NCI-H522; 50.5 µM (inactive) with SN12C; 60.3 µM (inactive) with RPMI-8226. Moreover, the GI50 was 29.8 µM (inactive) in the assay with Hs-578T; > 100 µM (inactive) in the assay with NCI-H460; 42.3 µM (inactive) in the assay on SW-620; 59.2 µM (inactive) with MDA-N; > 100 µM (inactive) with HOP-62; > 100 µM (inactive) with TK-10. Moreover, the GI50 with HL-60 was 34.7 µM (inactive); with LOX IMVI it was 27.6 µM (inactive); with SF-268, > 100 µM (inactive); in the assay on NCI-H226 it was > 100 µM (inactive); in the assay on HOP-92, > 100 µM (inactive).

With `CC(C)CCC[C@@H](C)[C@H]1CCC2C3CC=C4C[C@@H](Oc5c6ccccc6nc6ccccc56)CCC4C3CCC21` (stereo not given in full), the GI50 with EKVX is > 50 µM (inactive); in the assay on CCRF-CEM, > 50 µM (inactive); with OVCAR-5 it was > 50 µM (inactive); with NCI-H522 it was 36.4 µM (inactive); in the assay with SN12C it was > 50 µM (inactive); with Hs-578T, > 50 µM (inactive). Also, the GI50 in the assay with NCI-H460, in the assay on SW-620, in the assay with MDA-N, with HOP-62, with TK-10 and with HL-60 was > 50 µM (inactive) in each case. Also, the GI50 with LOX IMVI, in the assay on SF-268, in the assay on NCI-H226 and in the assay with HOP-92 was > 50 µM (inactive) in each case.
